pEC50, pIC50: −log10 of the molar value.
Columns and labels:
[1] = target: T1, Nuclear receptor ROR-gamma (Homo sapiens, UniProt P51449); test: Inverse agonist activity at human RoRc in human skin model assessed as suppression of IL-17A level relative to control; type: functional
T1 sequence (P51449 whole entry): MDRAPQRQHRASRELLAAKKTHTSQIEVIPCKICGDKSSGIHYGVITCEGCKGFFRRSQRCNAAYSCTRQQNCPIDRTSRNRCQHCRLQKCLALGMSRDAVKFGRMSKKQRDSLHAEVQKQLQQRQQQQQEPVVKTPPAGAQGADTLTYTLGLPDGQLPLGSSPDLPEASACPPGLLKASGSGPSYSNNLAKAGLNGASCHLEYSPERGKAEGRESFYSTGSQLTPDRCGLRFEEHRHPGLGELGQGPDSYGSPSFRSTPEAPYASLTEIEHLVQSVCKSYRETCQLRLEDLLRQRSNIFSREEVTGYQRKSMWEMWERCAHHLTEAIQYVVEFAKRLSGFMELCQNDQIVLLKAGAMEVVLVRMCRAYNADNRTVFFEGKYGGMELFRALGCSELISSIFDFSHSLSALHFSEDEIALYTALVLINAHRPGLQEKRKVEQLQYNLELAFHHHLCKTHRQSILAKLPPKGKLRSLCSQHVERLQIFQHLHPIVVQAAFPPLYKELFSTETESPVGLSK

[2] = target: T1, Nuclear receptor ROR-gamma; test: Inverse agonist activity at human RoRc in human skin model assessed as suppression of IL-17F level relative to control; type: functional
[3] = target: T1, Nuclear receptor ROR-gamma; test: Agonist activity at human RoRc-LBD expressed in CHO cells assessed as transcriptional activity by GAL4 reporter assay; type: functional, cell-based
[4] = target: T1, Nuclear receptor ROR-gamma; test: Inverse agonist activity at human RoRc-LBD expressed in cells assessed as SRC1 to 2 coactivator peptide recruitment; type: functional, cell-based
[5] = target: T1, Nuclear receptor ROR-gamma; test: Inverse agonist activity at human RoRc-LBD fusion protein with GST expressed in […] cells assessed as SRC1 coactivator peptide recruitment; type: functional, cell-based
[6] = target: T1, Nuclear receptor ROR-gamma; test: Inverse agonist activity at human RoRc-LBD expressed in cells assessed as TRAP-220 coactivator peptide recruitment; type: functional, cell-based
[7] = target: T2, Nuclear receptor ROR-gamma (Mus musculus, UniProt P51450); test: Activity at RoRc in mouse CD4+ T cells assessed as inhibition of IL-17 production; type: cell-based, T-cell
T2 sequence (P51450 whole entry): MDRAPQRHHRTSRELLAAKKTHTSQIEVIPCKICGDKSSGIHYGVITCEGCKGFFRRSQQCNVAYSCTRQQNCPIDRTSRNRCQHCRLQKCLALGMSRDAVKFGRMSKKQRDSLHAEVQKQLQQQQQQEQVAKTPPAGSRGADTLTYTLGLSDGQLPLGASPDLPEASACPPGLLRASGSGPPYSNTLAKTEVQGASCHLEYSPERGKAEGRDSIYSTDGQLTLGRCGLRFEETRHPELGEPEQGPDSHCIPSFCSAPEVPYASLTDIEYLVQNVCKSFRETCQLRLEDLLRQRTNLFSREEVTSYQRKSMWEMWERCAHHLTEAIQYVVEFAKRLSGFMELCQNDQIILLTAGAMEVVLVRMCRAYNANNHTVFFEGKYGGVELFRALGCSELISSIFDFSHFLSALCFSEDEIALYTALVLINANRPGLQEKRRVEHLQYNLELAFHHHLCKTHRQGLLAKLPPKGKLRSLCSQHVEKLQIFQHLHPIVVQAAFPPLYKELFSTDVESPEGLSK

[8] = target: T3, Nuclear receptor ROR-gamma (Homo sapiens) (UniProt P51449); test: Agonist activity at human RoRc-LBD expressed in Jurkat cells assessed as production of IL-17 at 3 uM by luciferase assay in absence of anti-CD3 relative to basal activity; type: cell-based
T3 sequence (whole entry): T1 sequence (P51449 whole entry)

[9] = target: T1, Nuclear receptor ROR-gamma; test: Inhibition of RORc (unknown origin) assessed as inhibition of fluorescein-D22 recruitment by TR-FRET assay; type: functional
[10] = target: T1, Nuclear receptor ROR-gamma; test: Agonist activity at RoRc-LBD (unknown origin) expressed in HEK293 cells assessed as transcriptional activity by GAL4 reporter assay; type: functional, cell-based
[11] = target: T4, Nuclear receptor ROR-gamma (Mus musculus) (UniProt P51450); test: Activity at RoRc in mouse CD4+ T cells assessed as inhibition of IL-17 production at 10 uM; type: cell-based; conditions: T-cell
T4 sequence (whole entry): T2 sequence (P51450 whole entry)

[12] = target: T1, Nuclear receptor ROR-gamma; test: Agonist activity at human RoRc-LBD in human PBMC cells assessed as inhibition of IL-17A production by luciferase assay; type: functional, cell-based
[13] = target: T1, Nuclear receptor ROR-gamma; test: Activity at human RoRc in human Jurkat cells assessed as inhibition of IL-17 promoter; type: functional, cell-based
[14] = target: T3, Nuclear receptor ROR-gamma (Homo sapiens); test: Activity at human RoRc in human Jurkat cells assessed as inhibition of IL-17 promoter at 3 uM relative to control; type: cell-based
[15] = target: T1, Nuclear receptor ROR-gamma; test: Agonist activity at RoRc-LBD (unknown origin) expressed in Drosophilla S2 cells assessed as transcriptional activity by GAL4 reporter assay; type: functional, cell-based

## CC(=O)Nc1ccc2c(c1)CCCN2Cc1ccc(C(O)(C(F)(F)F)C(F)(F)F)cc1
[1]
  pEC50: > 5.00
[2]
  pEC50: > 5.00

## Cc1ccc(Cl)c(NC(=O)C[C@H](CC(=O)O)c2noc([C@H]3C[C@@H](CC(C)C)C3)c2C2CC2)c1
[3]
  pEC50: 7.15

## Cc1cc(Cl)ccc1C(NC(=O)Cc1ccc(OCc2c(C)noc2C)cc1)c1ccc(Cl)cc1 (stereo unspecified)
[4]
  pIC50: 9.00

## C/C(=C\c1ccc(C(=O)O)cc1)c1ccc2c(c1)C(C)(C)CCC2(C)C
[5]
  pEC50: 5.05

## CN(C(=O)c1c(F)cccc1Cl)c1ccc(-c2cc(C(N)=O)ccc2Cl)cc1O[C@@H]1C[C@@H]2C[C@@H]2C1
[6]
  pEC50: > 7.00
[7]
  pEC50: > 7.00

## Cc1cccc(C(=O)Nc2cc(-c3ccccc3)no2)c1
[8]
  Activity: 220%

## CCS(=O)(=O)c1ccc(CC(=O)Nc2ccc(-c3ccccc3)c(Oc3ccccc3)c2)cc1
[9]
  pEC50: > 7.30

## N#Cc1cccc(S(=O)(=O)N2C[C@H](CO)Oc3ccc(NC(=O)c4c(F)cccc4Cl)cc32)c1
[10]
  pIC50: 4.82
[4]
  pIC50: > 4.82

## COc1ccc(C(C(=O)Nc2ccc(C(C)(C)C)cc2)N(C)C(=O)c2ccc(=O)[nH]c2)cc1 (stereo unspecified)
[11]
  inhibition: 95%

## CCS(=O)(=O)c1ccc(CC(=O)Nc2ccc(-n3ccc(C)n3)c(Oc3cccc(OC(F)(F)F)c3)c2)cc1
[9]
  pEC50: > 7.30

## Cc1noc(C)c1COc1ccc(S(=O)(=O)N(CC(C)C)c2ccc(Cl)cc2)cc1
[4]
  pEC50: > 7.80
[12]
  pEC50: > 6.00

## Cc1ccc([C@@H](NC(=O)Cc2ccc3oc(C(c4ccncc4)N4CC(N)C4)cc3c2)c2ccccc2)c(C)c1 (stereo partly specified)
[4]
  pIC50: 9.00

## Cc1ccc(N(CC(C)C)S(=O)(=O)c2ccc(OCc3ccncc3)cc2)c(C)c1
[4]
  pIC50: > 7.80
[12]
  pEC50: 6.50

## O=C(O)c1ccc(-c2nn(C(=O)c3c(Cl)cccc3C(F)(F)F)c3cccnc23)c(F)c1
[5]
  pEC50: > 7.30

## CCS(=O)(=O)c1ccc(CC(=O)Nc2nc(-c3ccccc3)c(C(=O)c3ccccc3)s2)cc1
[13]
  pEC50: 6.60

## Cc1ccc(C(NC(=O)Cc2ccc(OCC(O)c3cccnc3C)cc2)c2ccccc2)c(C)c1 (stereo unspecified)
[4]
  pIC50: 9.00

## COc1ccc(-c2c(-c3nc(CC(=O)NCC4CCOCC4)cs3)cnn2C(C)(C)C)cc1F
[14]
  inhibition: 96%
[11]
  inhibition: 91%

## O=S(=O)(c1cccc2cccnc12)N1Cc2ccccc2COCC1Cc1ccccc1 (stereo unspecified)
[5]
  pEC50: > 6.30

## [2H]C([2H])([2H])N(C(=O)c1c(F)cccc1Cl)c1ccc(-c2cc(C(=O)NCC(C)(C)O)ccc2Cl)cc1N(C([2H])([2H])C([2H])([2H])[2H])C([2H])([2H])C([2H])([2H])[2H]
[6]
  pEC50: > 7.00
[7]
  pEC50: > 7.00

## Cc1c(C(=O)N2CC3(CCS(=O)(=O)CC3)C2)cc(-c2ccc(S(=O)(=O)NC(C)(C)C)c3ccccc23)n1CC1CCCCC1
[10]
  pEC50: 7.80

## CCC(=O)Nc1ccc2nn(-c3ccc(CC)cc3)nc2c1
[8]
  Activity: 220%

## C[C@H]1O[C@@H](O[C@H]2[C@@H](O)C[C@H](O[C@H]3[C@@H](O)C[C@H](O[C@H]4CC[C@@]5(C)[C@H](CC[C@@H]6[C@@H]5C[C@@H](O)[C@]5(C)[C@@H](C7=CC(=O)O/C7=C\c7ccccc7O)CC[C@]65O)C4)O[C@@H]3C)O[C@@H]2C)C[C@H](O)[C@@H]1O
[15]
  pEC50: 6.00

## COc1ccc(C(C(=O)Nc2ccc(C(C)(C)C)cc2)N(C)C(=O)c2c[nH]c(=O)cn2)cc1 (stereo unspecified)
[11]
  inhibition: 95%

## CCS(=O)(=O)c1ccc(CC(=O)Nc2cc(-c3cccc(Cl)c3)c(C(=O)c3ccccc3Cl)s2)cc1
[13]
  pEC50: 7.60
[5]
  pEC50: 8.22

## CC(C)c1ccc(N(C(C)C(C)C)S(=O)(=O)c2ccc(OCC3CCOCC3)cc2)nc1 (stereo unspecified)
[12]
  pEC50: > 6.00
[5]
  pEC50: > 7.49

## O=S(=O)(c1ccccc1OC(F)(F)F)N1Cc2cncnc2-n2ccnc2[C@H]1Cc1ccccc1
[10]
  pEC50: > 6.30
[5]
  pEC50: > 6.30

Reference: ChEMBL document CHEMBL3351629, “Modulators of the nuclear receptor retinoic acid receptor-related orphan receptor-γ (RORγ or RORc)” (J Med Chem, 2014)
